Results from US5254566A, “Decahydroquinoline compounds” (Roussel Uclaf, priority 1991, dated 1993).
Where a name gives a salt, the structure may show the parent alone.

Assays:
[1] = system: Plasmodium falciparum FCC2 strain sensitive to chloroquine; test: Anti-paludal activity in vitro: inhibition of proliferation in continuous culture, FCC2 strain; assay type: cell-based; settings: parasitemia relative to controls, incubation 48 hours, RPS 10 medium, 5% CO2, read-out: ED50 (FCC2 strain sensitive to chloroquine)
Procedure: (§1) 2) Test for determining the anti-paludal activity in vitro
(§2) The culturing of Plasmodium falciparum "in vitro" was carried out in cupulas on polystyrene plates used for tissue culture. It was carried out at 37° C. in a CO2 oven by the technique of TRAGER et al (1976-1978) on a modified RPMI 1640 medium (AZOULAY et al 1983) buffered with a mixture of HEPES buffer (40 m.moles/l), glucose (4 g/l) and 10 percent human serum. The anti-malarial activity "in vitro" of the different products tested was studied on two different strains of Plasmodium falciparum, namely an FCC2 strain sensitive to chloroquine and an FZ strain resistant to chloroquine (R3 type resistance). […]
(§3) 0.7 ml of the globular suspension was deposited in each cupula and each concentration of chosen product was tested on 3 cupulas. […] After an incubation time of 48 hours without renewing the medium in a steam chest with a CO2 content of 5%, the parasitemia content of each cupula was evaluated.
(§4) To do this, the canisters were removed from the steam chest and were left for 10 minutes at rest under a hood with laminar flux. […] On these crush preparations, fixed and colored, the different forms of the parasite were counted for 2000 to 3000 red blood corpuscles per plate. The results were expressed as the percentage of proliferation relative to the controls. […]

[2] = system: Plasmodium falciparum FZ strain resistant to chloroquine; test: Anti-paludal activity in vitro: inhibition of proliferation in continuous culture, FZ strain; assay type: cell-based; settings: R3 type resistance, parasitemia relative to controls, incubation 48 hours, RPS 10 medium, 5% CO2, read-out: ED50 (FZ strain resistant to chloroquine)
Procedure: as §1, §2, §3, §4

SMILES: Clc1ccc2c(N3CCC[C@@H]4CCC[C@@H](N5CCCC5)[C@@H]43)ccnc2c1 (relative stereo) [Example 2, (4a α, 8α, 8aα) (±) 1-(7-chloro-4-quinolinyl)-decahydro-8-(1-pyrrolidinyl)-quinoline dihydrochloride]
- IC50 [1]: 0.35 µg/mL
- IC50 [2]: 0.34 µg/mL
